Reference: paper PMC3981819, “Signaling Properties and Pharmacological Analysis of Two Sulfakinin Receptors from the Red Flour Beetle, Tribolium castaneum” (PLoS ONE, 2014)
Blank lines part the entries; values can stand above or below the substance they belong to.

Columns and labels:
Trica-SKR2 = assay: Aequorin-luminescence assay, CHO-WTA11 cells (Gα16) transfected with Trica-SKR2; type: cell-based, Tribolium castaneum; settings: for % Trica-SKR2 (relative activation): peptide at 1 μM, relative to sTrica-SK(5–13) at 1 μM = 100%, at least three biological repeats, each in duplicate
Experimental: (§1) General pharmacological studies were performed in Chinese Hamster Ovary (CHO) WTA11 cells, stably coexpressing apoaequorin, a zeocin resistance gene and the promiscuous Gα16, which couples most agonist-induced GPCRs to the phospholipase C and Ca^2+ pathway irrespective of their natural signaling cascade. CHO-PAM28 cells stably expressing apoaequorin and a puromycin resistance gene but not Gα16 and HEK293T cells (Invitrogen) were used to determine possible effects on Ca^2+ and/or cAMP second messenger systems, respectively. All cell lines were cultured in Dulbecco’s Modified Eagles Medium nutrient mixture F12-Ham (DMEM/F12; Invitrogen) supplemented with 1% penicillin/streptomycin (10000 units/ml penicillin and 10 mg/ml streptomycin in 0.9% NaCl; Invitrogen) to prevent bacterial contamination of gram-positive and gram-negative bacteria. In CHO-WTA11 culture medium 250 μg/ml zeocin (Invitrogen) was added as a selection marker, while CHO-PAM28 culture medium was supplemented with 5 μg/ml puromycin to select cells stably expressing apoaequorin. All cell culture media were supplemented with 10% fetal bovine serum (inactivated at […]; Sigma-Aldrich).
(§2) Cells were cultured in vitro as a monolayer at 37°C with a constant supply of 5% CO2 and were subcultivated twice a week. Transfections of cells were performed in T75 flasks at 60–80% confluency. Transfection reagent for CHO cells was prepared by combining 3.75 ml Opti-MEM I (Invitrogen), 7.5 μg plasmid DNA and 18.75 μl of Plus Reagent (Invitrogen). After gently mixing and 5 min incubation at room temperature 45 μl of Lipofectamine LTX was added to the mixture. This transfection medium was incubated for 30 min at room temperature and added dropwise to the cells, supplemented with 3 ml of fresh culture medium. HEK 293T cells were cotransfected with a receptor construct (6 μg) and CRE-luciferase reporter construct (3 μg), consisting of the open reading frame of the luciferase gene, downstream of a multimerized cAMP-response-element (CRE) and promoter. After transfection, cells were grown overnight before an additional 20 ml of culture medium was supplemented. Cells were again incubated overnight for a final growth phase before luminescence screens were performed.
(§3) The aequorin luminescence assay was used to measure Ca^2+ signaling in CHO cell lines. Cells were detached using phosphate buffered saline (PBS) containing 0.2% EDTA and collected in 10 ml of DMEM/F-12 (without phenol red, with L-glutamine and 10 mM HEPES; Gibco). The viable cells were quantified using a NucleoCounter NC-100 (Chemometic). Cells were pelleted by 4 min centrifugation at 800 rpm at room temperature and resuspended in DMEM/BSA (DMEM/F-12 without phenol red, with L-glutamine and 10 mM HEPES, 0.1% bovine serum albumin) at a concentration of 5×10^6 cells/ml. Cells were then shielded from light and Coelenterazine H (Invitrogen) was added at a final concentration of 5 μM. Cells were gently shaken at room temperature for 4 h under dark conditions, allowing the aequorin holoenzyme to be reconstituted. After a 10-fold dilution in DMEM/BSA, cells were incubated another 30 min under the same conditions. Pharmacological ligands were dissolved in DMEM/BSA and 50 μl of ligand was added to wells of a 96-well plate. Wells containing 50 μl of DMEM/BSA were used as a negative control, while wells containing 1 μM of ATP served as positive control. Incubated cells were added to the wells of the 96-well plate and light emission was measured for 30 s using a Mithras LB940 (Berthold Technologies). After 30 s Triton X-100 (0.2% in DMEM/BSA) was added, lysing the cells and thus serving as an internal reference. Light emission was measured for an additional 8 s after Triton X-100 was introduced in the wells. Light emission from each well was calculated relative to the total response (ligand+Triton X-100) using the output file of Mikrowin2000 software (Mikrotek). Further analysis was done in Graphpad Prism 5.

Trica-SKR1 = assay: Aequorin-luminescence assay, CHO-WTA11 cells (Gα16) transfected with Trica-SKR1; type: cell-based, Tribolium castaneum; settings: for % Trica-SKR1 (relative activation): peptide at 1 μM, relative to sTrica-SK(5–13) at 1 μM = 100%, at least three biological repeats, each in duplicate
Experimental: as §1, §2, §3

Substance: DGY(SO3H)RPLQFa [1678B[φ1]wp-6, sulfated SK-like peptide encoded by C. elegans nlp-12]
% Trica-SKR2 (relative activation) (Trica-SKR2; aequorin bioluminescence): 19.9% | % Trica-SKR1 (relative activation) (Trica-SKR1; aequorin bioluminescence): 28.5%

Substance: HMRFa [2052[φ1]wp-3, tetrapeptide HMRFamide, truncated analog]
% Trica-SKR2 (relative activation) (Trica-SKR2; aequorin bioluminescence): 33.4% | % Trica-SKR1 (relative activation) (Trica-SKR1; aequorin bioluminescence): 43.4%

Substance: FDDYGAMRFa [2006[φ1]wp-1, alanine scan analog of nsTrica-SK]
% Trica-SKR2 (relative activation) (Trica-SKR2; aequorin bioluminescence): 3.5% | % Trica-SKR1 (relative activation) (Trica-SKR1; aequorin bioluminescence): 2.3%

Substance: FDDYGHMRAa [2003[φ1]wp-2, alanine scan analog of nsTrica-SK]
% Trica-SKR2 (relative activation) (Trica-SKR2; aequorin bioluminescence): 15.6% | % Trica-SKR1 (relative activation) (Trica-SKR1; aequorin bioluminescence): 8.2%

Substance: FDDYGHMAFa [2004[φ1]wp-1, alanine scan analog of nsTrica-SK]
% Trica-SKR2 (relative activation) (Trica-SKR2; aequorin bioluminescence): 7.3% | % Trica-SKR1 (relative activation) (Trica-SKR1; aequorin bioluminescence): 5.9%

Substance: PVDY(SO3H)DRPIMAFa [1569[φ2]wp-4, sulfated neuropeptide derived from C. elegans nlp-13]
% Trica-SKR2 (relative activation) (Trica-SKR2; aequorin bioluminescence): 13.4% | % Trica-SKR1 (relative activation) (Trica-SKR1; aequorin bioluminescence): 6.2%

Substance: pQPSY(SO3H)DRDIMSFa [1679[φ1]wp-4, sulfated neuropeptide derived from C. elegans nlp-13]
% Trica-SKR2 (relative activation) (Trica-SKR2; aequorin bioluminescence): 16.6% | % Trica-SKR1 (relative activation) (Trica-SKR1; aequorin bioluminescence): 16.5%

Substance: FDDYAHMRFa [2007[φ1]wp-1, alanine scan analog of nsTrica-SK, glycine replaced]
% Trica-SKR2 (relative activation) (Trica-SKR2; aequorin bioluminescence): 25.6% | % Trica-SKR1 (relative activation) (Trica-SKR1; aequorin bioluminescence): 30.6%

Substance: DYGHMRFa [2010[φ1]wp-1, truncated nonsulfated SK analog]
% Trica-SKR2 (relative activation) (Trica-SKR2; aequorin bioluminescence): 8.6% | % Trica-SKR1 (relative activation) (Trica-SKR1; aequorin bioluminescence): 7.6%

EC50 (Trica-SKR2; aequorin bioluminescence, 1 fM to 1 μM, three independent measurements in duplicate): 776 ± 443 nM | EC50 (Trica-SKR1; aequorin bioluminescence, 1 fM to 1 μM, ± 95% confidence interval, three independent measurements in duplicate): 16.8 ± 4.6 nM
Substance: pQLASDDY(SO3H)GHMRFa [sLocmi-SK, sulfated SK from the migratory locust, Locusta migratoria]
% Trica-SKR2 (relative activation) (Trica-SKR2; aequorin bioluminescence): 79.9% | times less potent than sTrica-SK(5–13) as Trica-SKR2 agonist (Trica-SKR2; ratio of EC50 values): ca. 1500 times | % Trica-SKR1 (relative activation) (Trica-SKR1; aequorin bioluminescence): 75.0% | times less potent than sTrica-SK(5–13) in activating the Trica-SKR1 (Trica-SKR1; ratio of EC50 values): about 150 times

Substance: FDDYGHMRFa [nsTrica-SK(5–13)]
% Trica-SKR2 (relative activation) (Trica-SKR2; aequorin bioluminescence): 23.5% | % Trica-SKR1 (relative activation) (Trica-SKR1; aequorin bioluminescence): 29.9%

Substance: DY(SO3H)RPLQFa [1678A[φ1]wp-4, sulfated SK-like peptide encoded by C. elegans nlp-12]
% Trica-SKR2 (relative activation) (Trica-SKR2; aequorin bioluminescence): 32.6% | % Trica-SKR1 (relative activation) (Trica-SKR1; aequorin bioluminescence): 40.8%

Substance: SPVDY(SO3H)DRPIMAFa [1567[φ1]wp-5, sulfated neuropeptide derived from C. elegans nlp-13]
% Trica-SKR2 (relative activation) (Trica-SKR2; aequorin bioluminescence): 33.7% | % Trica-SKR1 (relative activation) (Trica-SKR1; aequorin bioluminescence): 23.6%

Substance: FDDYGHARFa [2005[φ1]wp-3, alanine scan analog of nsTrica-SK]
% Trica-SKR2 (relative activation) (Trica-SKR2; aequorin bioluminescence): 11.1% | % Trica-SKR1 (relative activation) (Trica-SKR1; aequorin bioluminescence): 5.1%

Substance: YGHMRFa [2011[φ1]wp-1, truncated nonsulfated SK analog]
% Trica-SKR2 (relative activation) (Trica-SKR2; aequorin bioluminescence): 21.2% | % Trica-SKR1 (relative activation) (Trica-SKR1; aequorin bioluminescence): 26.3%

Substance: pQLASDDYGHMRFa [nsLocmi-SK, nonsulfated Locusta migratoria SK]
% Trica-SKR2 (relative activation) (Trica-SKR2; aequorin bioluminescence): 18.2% | % Trica-SKR1 (relative activation) (Trica-SKR1; aequorin bioluminescence): 22.2%

Substance: DDYGHMRFa [2009[φ1]wp-1, truncated nonsulfated SK analog]
% Trica-SKR2 (relative activation) (Trica-SKR2; aequorin bioluminescence): 17.1% | % Trica-SKR1 (relative activation) (Trica-SKR1; aequorin bioluminescence): 27.2%

Substance: SPVDYDRPIMAFa [1432-2[φ]wp-6, peptide derived from C. elegans nlp-13]
% Trica-SKR2 (relative activation) (Trica-SKR2; aequorin bioluminescence): 11.2% | % Trica-SKR1 (relative activation) (Trica-SKR1; aequorin bioluminescence): 16.4%

Substance: SDDY(SO3H)GHMRFa [1835[φ2]wp-4, sulfated SK analog SDDY(SO3H)GHMRFa]
% Trica-SKR2 (relative activation) (Trica-SKR2; aequorin bioluminescence): 41.4% | % Trica-SKR1 (relative activation) (Trica-SKR1; aequorin bioluminescence): 58.2%

Substance: GHMRFa [2053[φ1]wp-4, truncated nonsulfated SK analog]
% Trica-SKR2 (relative activation) (Trica-SKR2; aequorin bioluminescence): 44.6% | % Trica-SKR1 (relative activation) (Trica-SKR1; aequorin bioluminescence): 13.3%

Substance: FDDYGHMRa [2076[φ1]wp-2]
% Trica-SKR2 (relative activation) (Trica-SKR2; aequorin bioluminescence): 19.7% | % Trica-SKR1 (relative activation) (Trica-SKR1; aequorin bioluminescence): 25.8%
